Reference: patent US20120115742A1, “METHODS FOR IDENTIFICATION” (Cambridge Enterprise Limited, priority 2009, published 2012)

Assays:
Panc-2H4 cells = assay: Human Panc-2H4 insulin suppression assay; type: cell-based
From the text: (§1) Two different assays for “classical” sstr2 functions were adopted: (1) cultured foetal rat pituitary cells secreted growth hormone which is inhibited by sstr2 agonists in a dose-dependent fashion and (2) selected glucose-sensitive sub-clones of the human Panc-1 cell line secrete insulin which is inhibited by sstr2 agonists in a dose-dependent fashion.
Glucose-sensitive sub-clones of the human Panc-1, a cell line derived from a pleiomorphic epithelioid carcinoma of the exocrine pancreas, were obtained essentially as described by Hamil et al. (2008) Biomed. Sci. Instrum. 44:441-6. Briefly, Panc-1 cells were subcultured in 24 well plates, and the medium was supplemented with an additional 5% glucose. […] The resulting sub-lines were then tested for glucose sensitivity by preparing wells of a 96-well plate (5×10^4 cells per well) which were then exposed to cultured medium containing a range of glucose concentrations (low glucose DMEM, DMEM, DMEM+1% glucose, DMEM+2.5% glucose and DMEM+5% glucose). After 24 hrs incubation, the conditioned medium was collected and assayed for insulin secretion by ELISA (Linco; cat# EZHI-14K) in accordance with the manufacturer's instructions. […] Further 96 well plates were prepared using Panc-2H4 (5×10^4 cells per well) in DMEM. After 24 hrs, the medium was switched to DMEM+5% glucose containing various test agents at various concentrations (triplicate wells per condition). After a further 24 hrs, the conditioned medium was harvested and the concentration of insulin was determined by ELISA as described above.
(§2) Results were reported as the mean SD, expressed as the fold change from cells in the presence of vehicle only.

TNF-alpha = assay: Sub-lethal endotoxemia model, serum TNF-alpha after LPS; type: in vivo, mouse; conditions: dose-dependent; BN83250 s.c., valerolactam oral gavage
Method: We selected the sub-lethal endotoxemia model in mouse, because this has been well characterised in our laboratory (see for example Fox et al. (2002) J. Med. Chem. 45:360-70; Fox et al. (2005) J. Med. Chem. 48:867-74). The extent of systemic inflammation in response to a single intraperitoneal injection of bacterial lipopolysaccharide (LPS) can be estimated by measuring serum TNF-alpha 2 hours post challenge.
Methods: Mice (CD1 strain; adult males; 6 per group) were treated with BSCI (in an appropriate vehicle) or with vehicle alone by an appropriate route. […] Simultaneously, one set of mice at each BSCI concentration received BIM 23627 at 4 mg/animal (120 mg/kg) by sub-cutaneous injection (a treatment condition known to suppress classical sstr2-mediated signalling, such as GH release, in rats; Tulipano et al. (2002) 143:1218-24). Between 30 mins and 1 hour after dosing (a period when a maximal plasma concentration of BSCI has been achieved), the inflammatory challenge was elicited by intraperitoneal injection of 750 μg of LPS (Sigma; L4130 lot#024K4077; 900,000 EU/mg).
After a further 2 hours, the animals were sacrificed by CO2 asphyxiation, and blood was drawn by cardiac puncture. Serum was prepared by conventional methods, and the level of TNF-alpha in serum was measured using an ELISA (R&D Systems; Murine Quantikine code# MTA00) performed in accordance with the manufacturer's instructions.

fetal rat pituicytes = assay: Rat pituicyte GH suppression assay; type: cell-based; conditions: Table 3; suppression compared to vehicle
From the text: as §1
Methods: Cultures of fetal rat pituicytes were established exactly as previously described (Murray et al. (2004) J. Clin. Endocrinol. Metab. 89:3027-32) by enzymatic dispersion. After 48 hrs in low glucose DMEM plus 10% FCS, cells in 48 well plates (5×10^4 cells per well) were washed for 4 hrs in serum-free DMEM and then incubated with test agents at various concentrations for a further 24 hrs in serum-free DMEM. At the end of this period, the conditioned medium was harvested, any cell debris removed by centrifugation and assayed for […] using a commercially available ELISA (Linco; cat# EZRMGH-45K) in accordance with the manufacturer's instructions.
as §2

Jurkat-D3B cells = assay: SDF-1α induced migration of Jurkat-D3B cells expressing sstr2; type: cell-based, human
Method: Methods: Total mRNA was prepared from Panc-1 cells (a human pancreas cell line which is well known to express high levels of sstr2) using the RNAqueous 4PCR kit (Ambion, Cat code #1914) in accordance with the manufacturer's instructions. The mRNA was then reverse transcribed (using the RETROscript kit; Ambio) to yield a cDNA preparation. A full length cDNA of the sstr2 gene was then obtained by PCR (using a Peltier PTC-200 thermal cycler using the following cycle times and conditions: 94° C. for 2 min, followed by 30 cycles of 94° C., for 30 sec, 55° C. for 30 sec, 72° C. for 1 min and finally 72° C. for 10 min), and isolated by preparative gel electrophoresis. The sequence of the sstr2 cDNA was confirmed by sequencing. The sstr2 cDNA was treated with EcoRI and Xhol to generate sticky ends, which allowed directional cloning into the polylinker of the plasmid pcDNA3.1+ (Invitrogen) followed by ligation ([…] ligation reactions were run with 400 T4 DNA ligase (New England Biolabs) and the maximal amounts of DNA with an insert:plasmid ratio of 3:1 in ligase buffer incubated overnight at 13° C.). […]
A number of individual cell lines were obtained in this way, which expressed significant levels of sstr2 on the cell surface, detected by flow cytometry using the human-sstr2 antibody (Sigma, 50694; see Example 3 for details of the flow cytometry protocol used). […]

THP-1 cells = assay: MCP-1 induced THP-1 cell migration (Transwell/ChemoTx)
Method: Leukocyte migration was measured using the 96-well format micro Transwell® assay system from Neuroprobe (Gaithersburg, Md., USA). In principle, this assay consists of two chambers separated by a porous membrane. The chemoattractant is placed in the lower compartment and the cells are placed in the upper compartment.
First, the cell suspension to be placed in the upper compartment was prepared. The THP-1 cells were pelleted by centrifugation (770×g; 4 mins) and washed with Geys Balanced Salt Solution with 1 mg/ml BSA (GBSS+BSA). This wash was then repeated, and the cells re-pelleted before being resuspended in a small volume of GBSS+BSA for counting, for example using a standard haemocytometer.
This ensured that there were 100,000 THP-1 cells in each 25 μl of the solution to be placed in the upper chamber of the plate.
To the third pot, GBSS+BSA plus vehicle as appropriate was added so that the volumes in three pots are equal, acting as a control.
Next, the chemoattractant solution to be placed in the lower compartment was prepared. […] This solution was divided into three pots, as for the cell suspension. To one pot, the BSCI was added to the same final concentration as was added to the cell suspension, in the second pot the BSCI and the sstr2 antagonist were both added at the same concentration as previously added to the cell suspension, while to the remaining pot GBSS+BSA plus vehicle as appropriate was added so that the volumes in the three pots were equal.
Once the chemoattractant solutions for the lower wells and cell solutions for the upper chambers were prepared, the migration chamber was assembled. 29 μl of the appropriate chemoattractant solution was placed into the lower well of the chamber. Assays were performed with at least triplicate determinations of each condition. Once all the lower chambers were filled, the porous membrane was applied to the chamber in accordance with the manufacturer's instructions. Finally, 25 μl of the appropriate cell solution was applied to each upper chamber. A plastic lid was placed over the entire apparatus to prevent evaporation.
The assembled chamber was incubated at 37° C., 5% CO2, for 2 hours.
At the end of the incubation, the liquid cell suspension was gently removed from the upper chamber, 20 μl of ice-cold 20 mM EDTA in PBS was added to the upper chamber, and the apparatus was incubated at 4° C. for 15 mins. This procedure caused any cells adhering to the underside of the membrane to fall into the lower chamber.
After this incubation the filter was carefully flushed with GBSS+BSA to wash off the EDTA, and then the filter was removed.
The number of cells migrated into the lower chamber under each condition can then be determined by a number of methods, including direct counting, labelling with fluorescent or radioactive markers or through the use of a vital dye. Typically, we utilised the vital dye MTT. 3 μl of stock MTT solution were added to each well, and then the plate was incubated at 37° C. for 1-2 hours during which time dehydrogenase enzymes within the cells converted the soluble MTT to an insoluble blue formazan product that could be quantified spectrophotometrically.
In parallel, an 8-point standard curve was set up. Starting with the number of cells added to each upper chamber (100,000) and going down in 2-fold serial dilutions in GBSS+BSA, the cells were added to a plate in 25 with 3 μl of MTT stock solution added. The standard curve plate was incubated along side the migration plate. At the end of this incubation, the liquid was carefully removed from the lower chambers, taking care not to disturb the precipitated formazan product.
The MCP-1 stimulated migration was determined by subtracting the average number of cells that reached the lower compartment in wells where no MCP-1 was added from the average number of cells that reached the lower compartment where MCP-1 was present at 25 ng/ml.

[1] = system: rat peripheral blood leukocytes; assay: Rat chemokine-induced PBMC migration assay; type: cell-based
Method: Similarly, where human Panc-2H4 cells are used to determine the effect of agents on classical sstr2 targets, the result is compared with the effect of the same agents on chemokine-induced migration of human THP-1 cells. […] For this reason, the ratio of “classical” to “BSCI” activity in Table 3 is calculated separately for rat and human.

CC(C)(C)C(=O)N[C@H]1CCCNC1=O [Valerolactam, (S)-3-(2′2′-dimethylpropionoylamino)-tetrahydropyridin-2-one]
EC50 (Panc-2H4 cells; Table 3, read-out: Human Panc-2H4 insulin suppression assay ED50): > 1000 nM
Human Panc-2H4 insulin suppression assay Max effect (Panc-2H4 cells; Table 3, suppression compared to vehicle): <10%
inhibition of insulin secretion by Panc-2H4 (Panc-2H4 cells; highest concentrations tested): None of these agents inhibited insulin secretion
inhibition of LPS-induced systemic inflammation (TNF-alpha): dramatically inhibited
Rat pituicyte GH suppression assay Max effect (fetal rat pituicytes): 61%
sensitivity of Jurkat-D3B migration (Jurkat-D3B cells): sensitive to inhibition
potency relative to BN83253 (THP-1 cells; MCP-1 induced THP-1 migration, FIG. 5 versus FIG. 4): 20-50 fold
“Classical”:“BSCI” potency ratio, Human (THP-1 cells; THP-1 migration ED50 versus Panc-2H4 insulin ED50): <0.00005
Human chemokine-induced THP-1 migration assay Max effect (THP-1 cells; Table 3): 100%
“Classical”:“BSCI” potency ratio, Rat ([1]; PBMC migration ED50 versus pituicyte GH ED50): 0.0009
Rat chemokine-induced PBMC migration assay Max effect ([1]; Table 3): 100%
